# Data taken from PubChem BioAssay (NCI).
#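 Values below derive from 48-hour exposures of cells grown in 96-well plates, with endpoints linearly interpolated between the two concentrations bracketing the appropriate inhibition level. At the GI50, growth is halved. At the TGI there is no net growth.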
# Legend:
# Assay in all cases: NCI anticancer screen, dose series, 48 h
# [1] = test system: 786-0 renal
# [2] = test system: A549 NSCLC
# [3] = test system: ACHN renal
# [4] = test system: BT-549 breast
# [5] = test system: CAKI-1 renal
# [6] = test system: CCRF-CEM leukemia
# [7] = test system: DU-145 prostate
# [8] = test system: HCC-2998 colon
# [9] = test system: HCT-116 colon
# [10] = test system: HCT-15 colon
# [11] = test system: HL-60(TB) leukemia
# [12] = test system: HOP-62 NSCLC
# [13] = test system: HOP-92 NSCLC
# [14] = test system: HS 578T breast
# [15] = test system: HT29 colon
# [16] = test system: K-562 leukemia
# [17] = test system: KM12 colon
# [18] = test system: M14 melanoma
# [19] = test system: MCF7 breast
# [20] = test system: MDA-MB-435
# [21] = test system: MOLT-4 leukemia
# [22] = test system: NCI-H460 lung
# [23] = test system: NCI-H522 lung
# [24] = test system: NCI/ADR-RES ovarian
# [25] = test system: OVCAR-4 ovarian
# [26] = test system: OVCAR-5 ovarian
# [27] = test system: OVCAR-8 ovarian
# [28] = test system: PC-3 prostate
# [29] = test system: RPMI-8226 leukemia
# [30] = test system: SF-539 CNS
# [31] = test system: SK-OV-3 ovarian
# [32] = test system: SNB-19 CNS
# [33] = test system: SNB-75 CNS
# [34] = test system: SR leukemia
compound,measurement,setting,value
CCCCOc1ccc(S(=O)(=O)N2CCN(c3nccc(N4CCOCC4)n3)CC2)cc1,GI50,[1],2.7 µM
same,TGI,[1],> 100 µM
same,GI50,[2],0.654 µM
same,TGI,[2],> 100 µM
same,GI50,[3],1.92 µM
same,TGI,[3],> 100 µM
same,GI50,[4],2.45 µM
same,TGI,[4],> 100 µM
same,GI50,[5],1.76 µM
same,TGI,[5],> 100 µM
same,GI50,[6],3.44 µM
same,TGI,[6],> 100 µM
same,GI50,[7],0.524 µM
same,TGI,[7],> 100 µM
same,GI50,[8],1.84 µM
same,TGI,[8],> 100 µM
same,GI50,[9],0.484 µM
same,TGI,[9],> 100 µM
same,GI50,[10],1.71 µM
same,TGI,[10],> 100 µM
same,GI50,[11],0.476 µM
same,TGI,[11],> 100 µM
same,GI50,[12],16.3 µM
same,TGI,[12],> 100 µM
same,GI50,[13],1.8 µM
same,TGI,[13],6.91 µM
same,GI50,[14],3.02 µM
same,TGI,[14],> 100 µM
same,GI50,[15],0.538 µM
same,TGI,[15],> 100 µM
same,GI50,[16],3.3 µM
same,TGI,[16],> 100 µM
same,GI50,[17],1.57 µM
same,TGI,[17],> 100 µM
same,GI50,[18],2.71 µM
same,TGI,[18],> 100 µM
same,GI50,[19],> 100 µM
same,TGI,[19],> 100 µM
same,GI50,[20],1.5 µM
same,TGI,[20],> 100 µM
same,GI50,[21],1.4 µM
same,TGI,[21],> 100 µM
same,GI50,[22],0.481 µM
same,TGI,[22],> 100 µM
same,GI50,[23],> 100 µM
same,TGI,[23],> 100 µM
same,GI50,[24],2.02 µM
same,TGI,[24],> 100 µM
same,GI50,[25],4.73 µM
same,TGI,[25],> 100 µM
same,GI50,[26],> 100 µM
same,TGI,[26],> 100 µM
same,GI50,[27],4.04 µM
same,TGI,[27],> 100 µM
same,GI50,[28],3.15 µM
same,TGI,[28],> 100 µM
same,GI50,[29],0.422 µM
same,TGI,[29],5.59 µM
same,GI50,[30],4.09 µM
same,TGI,[30],> 100 µM
same,GI50,[31],2.78 µM
same,TGI,[31],> 100 µM
same,GI50,[32],6.65 µM
same,TGI,[32],> 100 µM
same,GI50,[33],1.77 µM
same,TGI,[33],4.39 µM
same,GI50,[34],2.77 µM
same,TGI,[34],> 100 µM
